This is an account of results in patent US10253039B2, “Inhibitors of bacterial DNA gyrase with efficacy against gram-negative bacteria” (priority 2014, dated 2019).

What all share (assay type): cell-based
The subject of test [1] is Klebsiella pneumoniae subsp. pneumoniae. As to the kind of experiment: MIC, 20-strain panel. The conditions noted are these: Klebsiella pneumoniae subsp. pneumoniae. The essentials: (§1)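 MIC read by eye as the lowest concentration without turbidity, after 16-18 h shaking incubation at 37° C. Cells: 1:10000 inoculum from growing subculture in LB. Compound in 2-fold serial dilutions, triplicate wells, DMSO vehicle control; CLSI protocol.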

The test system of test [2] is Salmonella enterica subsp. enterica typhimurium. Nature of the test: MIC, 20-strain panel. The conditions noted are these: Salmonella enterica subsp. enterica Typhimurium. In outline:
as §1

In a further test the test system is Streptococcus pyogenes. As to the kind of experiment: MIC, 20-strain panel. The essentials:
as §1

For another test, the system named is Shigella flexneri. Nature of the test: MIC, 20-strain panel. In outline: as §1
Test [3] concerns Staphylococcus aureus subsp. aureus. Nature of the test: MIC, 20-strain panel. As to conditions: Staphylococcus aureus subsp. aureus, read-out: MIC. In outline:
as §1

The test system of test [4] is Staphylococcus epidermidis. Nature of the test: MIC, 20-strain panel. In outline: as §1
For another test, the system named is Streptococcus agalactiae. Nature of the test: MIC, 20-strain panel. In outline:
as §1

The test system of the next test is E. coli JW5503 (deltolC). As to the kind of experiment: MIC, 20-strain panel. As to conditions: Escherichia coli, E. coli JW5503 (deltolC). In outline: as §1
In the next test the test system is E. coli MG1655. Nature of the test: MIC, 20-strain panel. As to conditions: Escherichia coli, MG1655, E. coli MG1655; read-out: MIC. In outline: as §1
Test [5] deals with Staphylococcus saprophyticus subsp. saprophyticus. Nature of the test: MIC, 20-strain panel. In outline:
as §1

For another test, the system named is E. coli BW25113. Nature of the test: MIC, microdilution in 96-well plates. The conditions noted are these: Escherichia coli, BW25113, E. coli BW25113; read-out: MIC. The essentials: as §1
On the technique in general: In broth dilution the organism is exposed to a series of concentrations in liquid medium.

The subject of the next test is Edwardsiella tarda. Nature of the test: MIC, microdilution in 96-well plates. In outline: as §1

Values after ≈ are worked out from the molar mass of the structure shown.

Consider `CC(C)Oc1ccc(CN2CC[C@@H](NS(=O)(=O)c3ccc(F)c(C#N)c3)C2)cc1` [Compound 165], for which the MIC (in test [1]; in test [2]; with Streptococcus pyogenes; against Shigella flexneri; in test [3]; in test [4]) was more than 8 µg/mL each time. For the same compound, the MIC – broadly, the lowest concentration that inhibits growth of the organism – in the test on Streptococcus agalactiae is more than 8 µg/mL; with E. coli JW5503 (deltolC), 4 µg/mL (≈ 9.58 µM); with E. coli MG1655, more than 8 µg/mL; in test [5], more than 8 µg/mL; in the test with E. coli BW25113, more than 8 µg/mL; in the test on Edwardsiella tarda, more than 8 µg/mL.
For the compound `N#Cc1cc(S(=O)(=O)N[C@@H]2CCN(Cc3ccc(OC4CC4)cc3)C2)ccc1F` [Compound 166], the minimal inhibitory concentration (MIC) was more than 8 µg/mL in [1]; approximately 8 µg/mL (≈ 19.3 µM) in test [2]; more than 8 µg/mL in the test with Streptococcus pyogenes; more than 8 µg/mL against Shigella flexneri; more than 8 µg/mL in [3]; more than 8 µg/mL in test [4]. Besides, the MIC in the test with Streptococcus agalactiae was more than 8 µg/mL; against E. coli JW5503 (deltolC), 2 µg/mL (≈ 4.81 µM); in the test on E. coli MG1655, more than 8 µg/mL; in test [5] it was more than 8 µg/mL; in the test on E. coli BW25113, more than 8 µg/mL; in the test with Edwardsiella tarda, more than 8 µg/mL.
Turning to `CC(C)Oc1ccc(CN2CC[C@@H](NS(=O)(=O)c3cccnc3)C2)cc1` [Compound 167], the MIC (in test [1]; in test [2]; with Streptococcus pyogenes; in the test on Shigella flexneri; in test [3]; in test [4]) was more than 8 µg/mL each time. Further, the MIC (in the test with Streptococcus agalactiae; with E. coli JW5503 (deltolC); in the test with E. coli MG1655; in [5]; in the test with E. coli BW25113; with Edwardsiella tarda) was more than 8 µg/mL throughout.
As to `O=S(=O)(N[C@@H]1CCN(Cc2ccc(OC3CC3)cc2)C1)c1cc(C(F)(F)F)ccc1F` [Compound 168], the MIC is more than 8 µg/mL in test [1]; approximately 8 µg/mL (≈ 17.4 µM) in test [2]; more than 8 µg/mL with Streptococcus pyogenes; approximately 8 µg/mL (≈ 17.4 µM) against Shigella flexneri; more than 8 µg/mL in test [3]; more than 8 µg/mL in [4]. Also, the MIC is more than 8 µg/mL in the test on Streptococcus agalactiae; 0.25 µg/mL (≈ 0.545 µM) against E. coli JW5503 (deltolC); more than 8 µg/mL with E. coli MG1655; more than 8 µg/mL in test [5]; more than 8 µg/mL in the test with E. coli BW25113; more than 8 µg/mL in the test on Edwardsiella tarda.
`O=S(=O)(N[C@@H]1CCN(Cc2ccc(OC3CC3)cc2)C1)c1cnccc1Cl` [Compound 169]: the MIC (in test [1]; in [2]; in the test on Streptococcus pyogenes; in the test on Shigella flexneri; in test [3]; in test [4]) was more than 8 µg/mL each time. Besides, the MIC (in the test with Streptococcus agalactiae; in the test with E. coli JW5503 (deltolC); with E. coli MG1655; in test [5]; in the test with E. coli BW25113; in the test on Edwardsiella tarda) was more than 8 µg/mL in each case.
Take `Cn1ccc(-c2ccc(CN3CC[C@@H](NS(=O)(=O)c4cccc(C#N)c4)C3)cc2)n1` [Compound 170]: the MIC (in test [1]; in test [2]; against Streptococcus pyogenes; against Shigella flexneri; in test [3]; in test [4]) was more than 8 µg/mL throughout. In addition, the MIC is more than 8 µg/mL in the test with Streptococcus agalactiae; 2 µg/mL (≈ 4.74 µM) in the test with E. coli JW5503 (deltolC); more than 8 µg/mL with E. coli MG1655; more than 8 µg/mL in [5]; more than 8 µg/mL in the test with E. coli BW25113; more than 8 µg/mL with Edwardsiella tarda.
With `Cn1ccc(-c2ccc(CN3CC[C@@H](NS(=O)(=O)c4cccc(C(F)(F)F)c4)C3)cc2)n1` [Compound 171], the MIC (in [1]; in [2]; against Streptococcus pyogenes; in the test with Shigella flexneri; in test [3]; in [4]) was more than 8 µg/mL in each case. Moreover, the MIC against Streptococcus agalactiae was more than 8 µg/mL; against E. coli JW5503 (deltolC), 1 µg/mL (≈ 2.15 µM); in the test on E. coli MG1655, more than 8 µg/mL; in test [5] it was more than 8 µg/mL; in the test with E. coli BW25113, more than 8 µg/mL; in the test on Edwardsiella tarda, more than 8 µg/mL.
Take `O=S(=O)(N[C@@H]1CCN(Cc2nc(-c3ccccc3)cs2)C1)c1cccc(C(F)(F)F)c1` [Compound 173]: the minimal inhibitory concentration (MIC) (in test [1]; in [2]; with Streptococcus pyogenes; against Shigella flexneri; in [3]; in test [4]) was more than 8 µg/mL throughout. Besides, the minimal inhibitory concentration (MIC) (in the test on Streptococcus agalactiae; with E. coli JW5503 (deltolC); in the test on E. coli MG1655; in [5]; with E. coli BW25113; in the test with Edwardsiella tarda) was more than 8 µg/mL in each case.
Consider `Cc1ccc(S(=O)(=O)N[C@@H]2CCN(Cc3ccc(-c4ccccc4)cc3)C2)cn1` [Compound 174], for which the MIC (in test [1]; in test [2]; against Streptococcus pyogenes; with Shigella flexneri; in test [3]; in test [4]) was more than 8 µg/mL in each case. Moreover, the MIC (in the test with Streptococcus agalactiae; in the test with E. coli JW5503 (deltolC); in the test on E. coli MG1655; in [5]; in the test on E. coli BW25113; with Edwardsiella tarda) was more than 8 µg/mL throughout.
With `Cc1ccc(S(=O)(=O)N[C@@H]2CCN(Cc3ccc(OC4CC4)cc3)C2)cn1` [Compound 175], the MIC (in test [1]; in [2]; in the test on Streptococcus pyogenes; against Shigella flexneri; in [3]; in [4]) was more than 8 µg/mL throughout. Moreover, the MIC (with Streptococcus agalactiae; against E. coli JW5503 (deltolC); with E. coli MG1655; in test [5]; with E. coli BW25113; against Edwardsiella tarda) was more than 8 µg/mL throughout.
In the case of `CSc1ccc(CN2CC[C@@H](NS(=O)(=O)c3cccc(OC(F)(F)F)c3)C2)cc1` [Compound 176], the MIC (in test [1]; in test [2]; in the test with Streptococcus pyogenes; in the test with Shigella flexneri; in [3]; in test [4]) was more than 8 µg/mL throughout. For the same compound, the MIC was more than 8 µg/mL against Streptococcus agalactiae; 8 µg/mL (≈ 17.9 µM) against E. coli JW5503 (deltolC); more than 8 µg/mL in the test with E. coli MG1655; more than 8 µg/mL in test [5]; more than 8 µg/mL in the test on E. coli BW25113; more than 8 µg/mL in the test on Edwardsiella tarda.
For the compound `O=S(=O)(N[C@@H]1CCN(Cc2ccc(OC3CCC3)cc2)C1)c1cccc(OC(F)(F)F)c1` [Compound 177], the MIC (in test [1]; in test [2]; in the test with Streptococcus pyogenes; against Shigella flexneri; in test [3]; in test [4]) was more than 8 µg/mL each time. Further, the MIC in the test on Streptococcus agalactiae was more than 8 µg/mL; against E. coli JW5503 (deltolC), 2 µg/mL (≈ 4.25 µM); in the test with E. coli MG1655, more than 8 µg/mL; in [5], more than 8 µg/mL; in the test on E. coli BW25113, more than 8 µg/mL; in the test on Edwardsiella tarda, more than 8 µg/mL.
With `O=S(=O)(N[C@@H]1CCN(Cc2ccc(-c3ccccc3)cc2)C1)c1cnc2ccccc2c1` [Compound 178], the MIC (in test [1]; in [2]; in the test with Streptococcus pyogenes; with Shigella flexneri; in [3]; in test [4]) was more than 8 µg/mL each time. For the same compound, the MIC (with Streptococcus agalactiae; in the test on E. coli JW5503 (deltolC); with E. coli MG1655; in [5]; in the test with E. coli BW25113; with Edwardsiella tarda) was more than 8 µg/mL throughout.
On to `CC(C)Oc1ccc(CN2CC[C@@H](NS(=O)(=O)c3ccc4c(c3)CC(=O)N4C)C2)cc1` [Compound 179], for which the MIC (in test [1]; in [2]; in the test on Streptococcus pyogenes; in the test on Shigella flexneri; in test [3]; in [4]) was more than 8 µg/mL in each case. The MIC (in the test with Streptococcus agalactiae; against E. coli JW5503 (deltolC); in the test on E. coli MG1655; in test [5]; in the test with E. coli BW25113; in the test with Edwardsiella tarda) was more than 8 µg/mL throughout.
Regarding `CN1C(=O)Cc2cc(S(=O)(=O)N[C@@H]3CCN(Cc4ccc(-c5ccccc5)cc4)C3)ccc21` [Compound 180], the MIC (in test [1]; in test [2]; against Streptococcus pyogenes; against Shigella flexneri; in test [3]; in test [4]) was more than 8 µg/mL each time. Moreover, the MIC (against Streptococcus agalactiae; in the test with E. coli JW5503 (deltolC); in the test with E. coli MG1655; in test [5]; in the test with E. coli BW25113; against Edwardsiella tarda) was more than 8 µg/mL throughout.
Consider `CN1C(=O)Cc2cc(S(=O)(=O)N[C@@H]3CCN(Cc4ccc(OC5CC5)cc4)C3)ccc21` [Compound 181], for which the MIC (in test [1]; in test [2]; in the test on Streptococcus pyogenes; against Shigella flexneri; in test [3]; in test [4]) was more than 8 µg/mL in each case. Further, the minimum inhibitory concentration (MIC) (with Streptococcus agalactiae; against E. coli JW5503 (deltolC); in the test with E. coli MG1655; in [5]; in the test on E. coli BW25113; with Edwardsiella tarda) was more than 8 µg/mL in each case.
